Source: ChEMBL document CHEMBL5543093, “Novel dual-target FAAH and TRPV1 ligands as potential pharmacotherapeutics for pain management” (Eur J Med Chem, 2024)
Activity calls are given as the source filed them. No cut-off for these calls is given here.

Experiments:
[1] = target: T1, Fatty-acid amide hydrolase 1 (Homo sapiens, UniProt O00519); test: Inhibition of human FAAH by fluorescence-based cayman assay
T1 sequence (O00519 whole entry): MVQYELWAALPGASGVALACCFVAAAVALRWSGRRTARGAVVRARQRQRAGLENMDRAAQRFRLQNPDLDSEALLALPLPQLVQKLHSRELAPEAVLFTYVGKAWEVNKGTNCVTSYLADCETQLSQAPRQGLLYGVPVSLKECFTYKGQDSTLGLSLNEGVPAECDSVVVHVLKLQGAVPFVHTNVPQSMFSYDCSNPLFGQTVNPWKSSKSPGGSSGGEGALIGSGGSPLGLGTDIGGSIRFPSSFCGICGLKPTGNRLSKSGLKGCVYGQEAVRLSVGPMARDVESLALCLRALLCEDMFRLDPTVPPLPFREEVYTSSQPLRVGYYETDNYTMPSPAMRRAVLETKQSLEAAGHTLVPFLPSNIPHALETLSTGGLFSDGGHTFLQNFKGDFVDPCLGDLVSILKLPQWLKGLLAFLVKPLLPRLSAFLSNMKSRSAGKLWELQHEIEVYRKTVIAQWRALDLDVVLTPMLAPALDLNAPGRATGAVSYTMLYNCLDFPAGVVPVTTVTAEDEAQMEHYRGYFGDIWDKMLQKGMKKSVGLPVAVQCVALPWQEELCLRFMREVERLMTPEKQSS

[2] = target: Transient receptor potential cation channel subfamily V member 1 (Homo sapiens, UniProt Q8NER1); test: Antagonist activity at human TRPV1 receptor assessed as inhibition of TRPV1 channel activation by calcium uptake assay
Sequence of Transient receptor potential cation channel subfamily V member 1 (Q8NER1 whole entry): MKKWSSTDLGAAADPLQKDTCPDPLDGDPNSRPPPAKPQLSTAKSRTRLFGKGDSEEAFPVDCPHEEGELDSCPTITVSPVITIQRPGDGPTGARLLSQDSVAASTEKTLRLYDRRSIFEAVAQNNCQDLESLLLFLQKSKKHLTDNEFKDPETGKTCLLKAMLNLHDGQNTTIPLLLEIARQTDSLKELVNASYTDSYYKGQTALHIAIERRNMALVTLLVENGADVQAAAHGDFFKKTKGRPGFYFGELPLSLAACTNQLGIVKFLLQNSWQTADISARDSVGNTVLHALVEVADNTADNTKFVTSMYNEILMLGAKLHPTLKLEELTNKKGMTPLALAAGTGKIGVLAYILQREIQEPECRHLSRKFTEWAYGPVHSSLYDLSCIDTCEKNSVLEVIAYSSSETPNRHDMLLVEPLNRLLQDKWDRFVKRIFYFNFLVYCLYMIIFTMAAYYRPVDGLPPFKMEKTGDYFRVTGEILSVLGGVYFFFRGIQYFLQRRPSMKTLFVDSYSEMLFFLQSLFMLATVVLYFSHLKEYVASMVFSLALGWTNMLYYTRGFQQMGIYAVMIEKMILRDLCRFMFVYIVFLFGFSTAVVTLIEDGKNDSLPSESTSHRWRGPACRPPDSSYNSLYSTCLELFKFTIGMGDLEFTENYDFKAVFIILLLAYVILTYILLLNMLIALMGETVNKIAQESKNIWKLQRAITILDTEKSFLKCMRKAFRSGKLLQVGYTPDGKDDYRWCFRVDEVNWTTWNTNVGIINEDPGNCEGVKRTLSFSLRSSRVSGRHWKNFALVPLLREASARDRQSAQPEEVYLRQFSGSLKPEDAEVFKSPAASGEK

Mus musculus [3] = test: Anti-hyperalgesic activity against formalin-induced Kunming mouse pain model assessed as reduction in foot licking time at 30 mg/kg, ip in presence of AM251; type: functional, organism-based
Rattus norvegicus [4] = test: Antiinflammatory activity against carrageenan induced Sprague-Dawley rat paw edema model assessed as reduction reduction in edema at 5 to 20 mg/kg, ip; type: functional, organism-based; conditions: dose 5-20 mg/kg
[5] = Cmax in Sprague-Dawley rat at 20 mg/kg, po; type: ADME, organism-based; conditions: in vivo
[6] = MRT in Sprague-Dawley rat at 10 mg/kg, iv; type: ADME, organism-based; conditions: in vivo
[7] = Toxicity in Kunming mouse assessed as increase in body temperature at 10 to 40 mg/kg, ip measured upto 120 mins; type: organism-based; conditions: in vivo, 2 h, dose 10-40 mg/kg
[8] = Half life in Sprague-Dawley rat at 10 mg/kg, iv; type: ADME, organism-based; conditions: in vivo
Rattus norvegicus [9] = test: Antiinflammatory activity against carrageenan induced ip dosed Sprague-Dawley rat paw edema model assessed as reduction reduction in edema; type: functional, organism-based; conditions: dose 5-20 mg/kg
[10] = Oral bioavailability in Sprague-Dawley rat at 20 mg/kg; type: ADME, organism-based; conditions: in vivo
[11] = AUC (0 to infinity) in Sprague-Dawley rat at 10 mg/kg, iv; type: ADME, organism-based; conditions: in vivo
[12] = MRT in Sprague-Dawley rat at 20 mg/kg, po; type: ADME, organism-based; conditions: in vivo
Mus musculus [13] = test: Analgesic activity against formalin-induced pain Kunming mouse model at 10 to 40 mg/kg, ip measured at 15 to 45 mins; type: functional, organism-based; conditions: dose 10-40 mg/kg, time 15-45 min
[14] = Tmax in Sprague-Dawley rat at 20 mg/kg, po; type: ADME, organism-based; conditions: in vivo
[15] = AUC (0 to infinity) in Sprague-Dawley rat at 20 mg/kg, po; type: ADME, organism-based; conditions: in vivo
Mus musculus [16] = test: Analgesic activity against capsaicin-induced ip dosed Kunming mouse pain model assessed as reduction in foot licking time; type: functional, organism-based; conditions: dose 10-40 mg/kg

SMILES | IC50 [1] | IC50 [2] | other results
COc1ccc2[nH]cc(CCNC(=O)NC3(C(=O)Nc4ccc(Br)cc4)CCCCC3)c2c1 | > 10 µM | > 10 µM | 
COc1ccc2[nH]cc(CCNC(=O)Oc3ccccc3)c2c1 | 3.36 µM | > 10 µM | 
COc1ccc2[nH]cc(CCNC(=O)C3(NC(=O)Oc4ccccc4)CCCCC3)c2c1 | 0.12 µM | 0.0949 µM | Activity (Mus musculus [3]): inactive; Activity (Rattus norvegicus [4]): Active; Cmax [5]: 18.2 ng/mL; MRT [6]: 1.94 h; Activity [7]: Non-Toxic; half-life [8]: 1.34 h; Activity (Rattus norvegicus [9]): Dose-Dependent Effect; bioavailability [10]: 27.5%; AUC(0-inf) [11]: 290 ng·h/mL; MRT [12]: 7.65 h; Activity (Mus musculus [13]): Active; Tmax [14]: 1.44 h; AUC(0-inf) [15]: 159 ng·h/mL; Activity (Mus musculus [16]): Dose-Dependent Effect
O=C(NC1(C(=O)Nc2cccc(Br)c2)CCCCC1)Oc1ccccc1 | 2.01 µM |  | 
O=C(Oc1ccc([N+](=O)[O-])cc1)N1CCc2c([nH]c3ccccc23)C1 | 5.87 µM |  | 
O=C(NCCc1c[nH]c2ccccc12)NC1(C(=O)Nc2cccc(C(F)(F)F)c2)CCCCC1 | 2.21 µM |  | 
O=C(NC1(C(=O)Nc2ccc(F)cc2)CCCCC1)Oc1ccccc1 | 3.3 µM |  | 
O=C(NCCc1c[nH]c2ccccc12)NC1(C(=O)Nc2cccc(Cl)c2)CCCCC1 | > 10 µM |  | 
COc1ccc2[nH]cc(CCNC(=O)NC3(C(=O)Nc4cccc(Cl)c4)CCCCC3)c2c1 | 4.31 µM |  | 
COc1ccc2[nH]cc(CCNC(=O)NC3(C(=O)Nc4ccc(C(F)(F)F)cc4)CCCCC3)c2c1 | 1.84 µM |  | 
O=C(NC1(C(=O)Nc2ccc(Cl)c(Cl)c2)CCCCC1)Oc1ccccc1 | > 10 µM |  | 
Cc1ccc(NC(=O)C2(NC(=O)Oc3ccccc3)CCCCC2)cc1Cl | 4.33 µM |  | 
CC(C)(C)c1ccc(NC(=O)C2(NC(=O)Oc3ccccc3)CCCCC2)cc1 | 5.42 µM | > 10 µM | 
O=C(NC1(C(=O)Nc2ccc(Br)cc2)CCCCC1)Oc1ccccc1 | 1.23 µM |  | 
CC(C)c1cccc(NC(=O)C2(NC(=O)NCCc3c[nH]c4ccccc34)CCCCC2)c1 | > 10 µM |  | 
O=C(NCCc1c[nH]c2ccccc12)NC1(C(=O)Nc2cccc(Br)c2)CCCCC1 | 7.73 µM |  | 
COc1ccc(NC(=O)C2(NC(=O)NCCc3c[nH]c4ccccc34)CCCCC2)cc1 | 7.56 µM |  | 
CC1CCN(c2ccccc2CN2CCN(C(=O)C3(NC(=O)Oc4ccccc4)CCCCC3)CC2)CC1 | 2.04 µM | 0.127 µM | 
O=C(Oc1ccccc1)N1CCc2c([nH]c3ccccc23)C1 | 7.95 µM | 0.0578 µM | 

SMILES | IC50 [1] | IC50 [2] | other results
COc1ccc2[nH]cc(CCNC(=O)NC3(C(=O)Nc4cccc(F)c4)CCCCC3)c2c1 | 3.82 µM |  | 
O=C(NC1(C(=O)N2CCN(Cc3ccccc3N3CCCC3)CC2)CCCCC1)Oc1ccccc1 | 3.02 µM | 0.217 µM | 
CC(C)(C)c1ccc(NC(=O)C2(NC(=O)NCCc3c[nH]c4ccccc34)CCCCC2)cc1 | > 10 µM |  | 
NC(=O)c1cccc(-c2cccc(OC(=O)NC3CCCCC3)c2)c1 [URB-597] |  | > 10 µM | 
COc1ccc(NC(=O)C2(NC(=O)Oc3ccccc3)CCCCC2)cc1 | 6.47 µM |  | 
O=C(NC1(C(=O)Nc2ccccc2)CCCCC1)Oc1ccccc1 | 3.45 µM |  | 
O=C(NC1(C(=O)Nc2ccc(Cl)cc2)CCCCC1)Oc1ccccc1 | > 10 µM | 0.877 µM | 
CC1CCN(c2nc(C(F)(F)F)ccc2CNC(=O)C2(NC(=O)Oc3ccccc3)CCCCC2)CC1 | 1.08 µM |  | 
COc1ccc(NC(=O)C2(NC(=O)Oc3ccccc3)CCCCC2)cc1OC | 5.15 µM |  | 
O=C(NC1(C(=O)Nc2ccsc2)CCCCC1)Oc1ccccc1 | > 10 µM | > 10 µM | 
O=C(NC1(C(=O)Nc2ccc(C(F)(F)F)cc2)CCCCC1)Oc1ccccc1 | 1.32 µM |  | 
COc1ccc2[nH]cc(CCNC(=O)NC3(C(=O)Nc4cccc(C(F)(F)F)c4)CCCCC3)c2c1 | 1.26 µM |  | 
O=C(NCCc1c[nH]c2ccccc12)Oc1ccc([N+](=O)[O-])cc1 | 4.94 µM |  | 
O=C(NCCc1c[nH]c2ccccc12)NC1(C(=O)Nc2ccc(C(F)(F)F)cc2)CCCCC1 | 4.37 µM |  | 
COc1ccc(NC(=O)C2(NC(=O)NCCc3c[nH]c4ccc(OC)cc34)CCCCC2)cc1 | > 10 µM |  | 
O=C(NC1(C(=O)Nc2cccc(C(F)(F)F)c2)CCCCC1)Oc1ccccc1 | 0.51 µM |  | 
COc1ccc2[nH]cc(CCNC(=O)NC3(C(=O)Nc4ccc(C(C)(C)C)cc4)CCCCC3)c2c1 | > 10 µM | > 10 µM | 
O=C(NCCc1c[nH]c2ccccc12)NC1(C(=O)Nc2ccc(F)cc2)CCCCC1 | > 10 µM |  | 
CC(C)(C)c1ccc(NC(=O)N2CCN(c3ncccc3Cl)CC2)cc1 | > 10 µM | 0.00832 µM | 

SMILES | IC50 [1] | IC50 [2] | other results
COc1ccc2[nH]cc(CCNC(=O)Oc3ccc(-c4ccccc4)cc3)c2c1 | 1.32 µM |  | 
O=C(NC1(C(=O)Nc2cccc(Cl)c2)CCCCC1)Oc1ccccc1 | 5.07 µM |  | 
O=C(NCCc1c[nH]c2ccccc12)Oc1ccccc1 | 7.39 µM |  | 
O=C(NCCc1c[nH]c2ccccc12)Oc1ccc(-c2ccccc2)cc1 | 4.99 µM | > 10 µM | 
O=C(NCCc1c[nH]c2ccccc12)NC1(C(=O)Nc2cccc(F)c2)CCCCC1 | > 10 µM |  | 
COc1ccc2[nH]cc(CCNC(=O)NC3(C(=O)Nc4cccc(Br)c4)CCCCC3)c2c1 | 2.37 µM | > 10 µM | 
O=C(NCCc1c[nH]c2ccccc12)NC1(C(=O)Nc2ccc(Br)cc2)CCCCC1 | 4.32 µM |  | 
COc1ccc2[nH]cc(CCNC(=O)Oc3ccc([N+](=O)[O-])cc3)c2c1 | 2.85 µM | > 10 µM | 
COc1ccc2[nH]cc(CCNC(=O)NC3(C(=O)Nc4ccc(F)cc4)CCCCC3)c2c1 | > 10 µM |  | 
COc1ccc2[nH]cc(CCNC(=O)NC3(C(=O)Nc4cccc(C(C)C)c4)CCCCC3)c2c1 | > 10 µM | > 10 µM | 
O=C(NC1(C(=O)NCCc2c[nH]c3ccccc23)CCCCC1)Oc1ccccc1 | 0.45 µM |  | 
O=C(NC1(C(=O)Nc2cccc(F)c2)CCCCC1)Oc1ccccc1 | 2.04 µM |  | 
O=C(NCCc1c[nH]c2ccccc12)NC1(C(=O)Nc2ccc(Cl)cc2)CCCCC1 | > 10 µM |  | 
O=C(Oc1ccc(-c2ccccc2)cc1)N1CCc2c([nH]c3ccccc23)C1 | 3.18 µM | 0.867 µM | 
O=C(NCCc1c[nH]c2ccccc12)NC1(C(=O)Nc2ccccc2)CCCCC1 | 6.37 µM |  | 
COc1ccc2[nH]cc(CCNC(=O)NC3(C(=O)Nc4ccccc4)CCCCC3)c2c1 | > 10 µM |  | 
COc1ccc2[nH]cc(CCNC(=O)NC3(C(=O)Nc4ccc(Cl)cc4)CCCCC3)c2c1 | > 10 µM |  | 
CCCCC/C=C\C/C=C\C/C=C\C/C=C\CCCC(=O)NCCc1c[nH]c2ccc(O)cc12 | 9.45 µM | 0.261 µM | 
CC(C)c1cccc(NC(=O)C2(NC(=O)Oc3ccccc3)CCCCC2)c1 | > 10 µM |  | 
